Results reported in patent US4863942A, “Novel resorcinol ethers and anti-inflammatory and anti-allergic use thereof” (Ciba-Geigy Corporation, priority 1984, dated 1989).
pIC50: −log10 of the molar value. Where two headings read alike, the source gives them in different places. Blank lines part the entries; values can stand above or below the molecule they belong to.

How the values were obtained:
[1] = target: phospholipase A2 obtained from human leucocytes; assay: In vitro test for determining the inhibition of phospholipase A2 obtained from human leucocytes; type: biochemical; details: pH 7, 37°, one hour, 14C-oleic acid labelled E. coli phospholipids; for pIC50: read-out: IC50
Source text: In vitro test for determining the inhibition of phospholipase A2 obtained from human leucocytes Human neutrophilic polymorphonuclear leucocytes are isolated from "buffy coats" by multistage fractional sedimentation and deep-frozen. Phospholipase A2 is extracted from the cell suspension by homogenisation with the addition of ice-cold 0.36N H2 SO4 in 2M NaCl and the supernatant obtained after centrifugation at 10,000 g is dialysed against sodium acetate buffer pH 4.5. […] The reaction is stopped by the addition of Dole reagent (isopropanol/heptane/1N H2 SO4 40:10:1, v/v) and the ^14 C-oleic acid released selectively by phospholipase A2 is extracted. […] The ^14 C-oleic acid in the eluate is determined radiometrically. In order to ascertain the inhibitory action of test substances on phospholipase A2, these substances are added to the incubation mixture in the form of solutions in water, dimethyl sulphoxide (final concentration in the mixture up to 5% by volume) or ethanol (final concentration in the mixture up to 2.5% by volume). The strength of action of the test substances is expressed by the IC50, that is to say the concentration that brings about a 50% inhibition of the control activity The IC50 is ascertained on a graph by entering the percentage inhibition on the ordinate against the logarithm of the concentration (μM) on the abscissa.

[2] = tested on: LTD4-induced contractions of the isolated ileum; assay: Inhibitory action on LTD4-induced contractions of the guinea-pig ileum; type: cell-based, guinea-pigs; details: Cavia porcellus; synthetic LTD4, guinea-pig ileum segments in Tyrode's solution, 38° C.
Method: (§1) For example, they have an anti-allergic action which is based on a pronounced LTD4 (leucotriene-D4) and PAF (PAF-acetoether) antagonism.
Inhibitory action on LTD4 -induced contractions of the guinea-pig ileum
Contractions, the severity of which is recorded, are induced by synthetic LTD4 (leucotriene-D4, potassium salt) in ileum segments that have been taken from guinea-pigs having a body weight of from 300 to 400 g, fastened in an organ bath in Tyrode's solution (38° C., gassing with 95% O2 and 5% CO2) and charged with […]. The degree of inhibition of these contractions that is attributable to the LTD4 -antagonistic action of the test substance is measured. The concentration of test substance that reduces LTD4 -induced contractions to 50% of the starting value is ascertained, this concentration being termed IC50.

[3] = target: phospholipase C obtained from human thrombocytes; assay: In vitro test for determining the inhibition of phospholipase C obtained from human thrombocytes; type: biochemical; details: for pIC50: read-out: IC50
Method: In vitro test for determining the inhibition of phospholipase C obtained from human thrombocytes
Human thrombocytes are obtained from "buffy coats" by fractional centrifugation and then deep-frozen. Phospholipase C is released by ultrasound treatment of the cell suspension and, after ultracentrifugation (150,000 g, 1 hour) is in soluble form in the supernatant.
In order to determine the enzyme activity, enzyme (20-100 μg protein) is incubated for 5 minutes at 37° in 0.025M tris/malate buffer pH 6 with the addition of 0.2 mM CaCl2 and 0.02 mM radioactively labelled substrate, phosphatidyl- [^14 C]-inositol. The reaction is stopped by extraction by shaking with CHCl3 /CH3 OH 2:1 (v/v). Substrate that has not been consumed is extracted into the organic phase while the reaction product, ^14 C-inositol phosphate, remains in the aqueous phase and can be measured by radiometry of an aliquot.
In order to ascertain the inhibitory action of test substances on phospholipase C, these substances are added to the incubation mixture in the form of solutions in water or dimethyl sulphoxide (final concentration in the mixture up to 5% by volume). The strength of action of the test substances is expressed by the IC50, that is to say the concentration that brings about a 50% inhibition of the control activity. The IC50 is ascertained on a graph by entering the percentage inhibition on the ordinate against the logarithm of the concentration (μM) on the abscissa.

[4] = tested on: LTD4-induced bronchospasms; assay: Bronchoconstriction test in guinea-pigs (in vivo, aerosol), LTD4-induced bronchospasm; details: aerosol treatment, compliance in third minute after LTD4 aerosol
Method: as §1
Bronchoconstriction test in guinea-pigs (in vivo, aerosol)
Male guinea-pigs weighing from 400 to 700 g are anaesthetised intraperitoneally with 1.4 g/kg of urethane, and a polyethylene tube is introduced into the jugular vein. A second polyethylene tube is introduced into the trachea. The pressure in the oesophagus is recorded by means of a tube which is introduced into the oesophagus and which is connected to a Statham pressure transducer. […] The flow is measured by means of this arrangement. […]
Aqueous solutions are each freshly prepared and introduced by means of an on-stream drug vial into the chamber of the spray device. […] The reduction in the compliance in the third minute after the administration of LTD4 is read by comparing the average value of three animals with the average value of three control animals and the percentage inhibition of the compliance is calculated in accordance with the following formula: [formula] If different concentrations of active ingredient are investigated, then the percentage inhibition for each concentration is recorded by entering the log concentration on the abscissa against the percentage inhibition on the ordinate. […]

[5] = pH 6, 37°, 5 minutes, phosphatidyl-[14C]-inositol

pIC50 [1]: 4.64
SMILES: CCCc1c(OCCCOc2cccc(NC(=O)C(=O)O)c2)ccc(C(C)=O)c1O [N-{3-[3-(4-acetyl-3-hydroxy-2-n-propylphenoxy)-propoxy]-phenyl}-oxamic acid]

IC50 [1]: inactive at 100
SMILES: CCCc1c(OCC(O)COc2cccc(NC(=O)C(=O)O)c2)ccc(C(C)=O)c1O (stereo not drawn) [N-{3-[3-(4-acetyl-3-hydroxy-2-n-propyl-phenoxy)-2-hydroxypropoxy]-phenyl}-oxamic acid, reference compound]

pIC50 [1]: 5.00
pIC50 [2]: 8.10
SMILES: CCCc1c(OCCCOc2cc(NC(=O)c3nnn[nH]3)c(C)cc2Br)ccc(C(C)=O)c1O [N-{3-[3-(4-acetyl-3-hydroxy-2-n-propylphenoxy)-propoxy]-4-bromo-6-methylphenyl}-1H-tetrazole-5-carboxamide]

pIC50 [1]: 2.80
pIC50 ([3]; mepacrine under the test conditions described): 4.70
SMILES: CCN(CC)CCCC(C)Nc1c2ccc(Cl)cc2nc2ccc(OC)cc12 (stereo not drawn) [mepacrine, reference compound]

pIC50 [1]: 4.70
pIC50 [3, 5]: 4.85
SMILES: CCCc1c(OCCCOc2cccc(NC(=O)c3nnn[nH]3)c2C#N)ccc(C(C)=O)c1O [N-{3-[3-(4-acetyl-3-hydroxy-2-n-propylphenoxy)-propoxy]-2-cyanophenyl}-1H-tetrazole-5-carboxamide]

IC50 [1]: inactive at 100
IC50 [3, 5]: inactive at 100
SMILES: CCCc1c(OCC(O)COc2cccc(NC(=O)C(=O)O)c2C#N)ccc(C(C)=O)c1O (stereo not drawn) [N-{3-[3-(4-acetyl-3-hydroxy-2-n-propyl-phenoxy)-2-hydroxypropoxy]-2-cyanophenyl}-oxamic acid, reference compound]

pIC50 [1]: 4.52
SMILES: CCCc1c(OCCCOc2cccc(NC(=O)C(=O)O)c2C#N)ccc(C(C)=O)c1O [N-{3-[3-(4-acetyl-3-hydroxy-2-n-propylphenoxy)-propoxy]-2-cyanophenyl}-oxamic acid]

IC50 [4]: 0.024 % of the aerosol solution
pIC50 [2]: 7.82
SMILES: CCCc1c(OCCCOc2ccc(C)c(NC(=O)C(=O)O)c2)ccc(C(C)=O)c1O [N-{3-[3-(4-acetyl-3-hydroxy-2-n-propylphenoxy)-propoxy]-6-methylphenyl}-oxamic acid]

IC50 [4]: 0.033 % of the aerosol solution
pIC50 [1]: 4.82
SMILES: CCCc1c(OCCCOc2cc(NC(=O)C(=O)O)c(C)cc2Br)ccc(C(C)=O)c1O [N-{3-[3-(4-acetyl-3-hydroxy-2-n-propylphenoxy)-propoxy]-4-bromo-6-methylphenyl}-oxamic acid]
